Results reported in patent US20230174581A1, “PROCESSES AND AGENTS FOR GLAUCOMA” (AUFBAU MEDICAL INNOVATIONS LIMITED, priority 2020, published 2023).
Where a name gives a salt, the structure may show the parent alone. Where a SMILES comes first, the peptide text is derived from it. Bridges are numbered along the chain shown (N, C = ends). [ ]: non-standard residue; d: D form. The star is where a group is joined. Octanoyl(6-Me) = CCC(C)CCCCC(=O)*; Dab = NCC[CH](N)C(=O)O

What was measured:
[1] = Relative IOP versus placebo in bovine vitreous humor (BVH) glaucoma model, microfluidic chip device
Method: Bovine vitreous after homogenization was used to model human disease because it mimicked elevated IOP in humans.
A solution of the agent compound was prepared by weighing out the compound in a microcentrifuge tube and dissolving the solid material in lx PBS buffer at pH 7.2. For a compound that was less soluble in water, a stock solution was prepared in ethanol or DMSO, and then diluted ten-fold to achieve the final concentration with a 10% ethanol or DMSO vehicle. Heat (37° C.) and vortex mixing were applied to the solution of the compound to facilitate dissolution.
To determine the effect of the compound on intraocular pressure (IOP), the compound was tested in bovine vitreous humor (BVH) glaucoma model in the microfluidic chip device.
A solution of 25% homogenized bovine vitreous humor (BVH) was prepared by diluting 100% homogenized BVH with PBS buffer. 50 uL BVH was aliquoted into 0.5 mL PCR tubes. 50 uL of the solution of the compound was added to the BVH, bringing the BVH total concentration to 12.5%. The sample was briefly vortexed and then incubated at 37° C. overnight. For a control experiment, 50 uL of either PBS buffer or PBS with 10% ethanol or DMSO were prepared and incubated with 25% BVH in the same conditions.
The test BVH solution was introduced into the reservoir of the device. A fluidic probe was attached to the inlet of the microfluidic chip and a flow rate of 2ul/min was established with PBS as the source fluid. Once fluid began exiting from the outlet of the chip and a steady flow of 2 ul/min was achieved, the flow rate and the pressure change within the microfluidic chip were recorded. Baseline flow rate and pressure readings were recorded for 5 minutes, after which 7 ul of the test BVH solution was injected into the chip through a sample injector. Recording of the flow rate and pressure change was continued for 50 additional minutes after the sample injection. Recording was stopped after 55 minutes. The relative change in chip pressure for the entire course of the experiment was plotted on a graph.

[2] = Dose-response of IOP reduction in bovine vitreous humor (BVH) glaucoma model, microfluidic chip device; conditions: 12.5% BVH, incubated at 37° C. for 1 hour; 7 ul injected; read-out: EC50 for treatment of glaucoma in a bovine vitreous model (IOP reduction)
Method: Bovine vitreous after homogenization was used to model human disease because it mimicked elevated IOP in humans. […] Once it was added to BVH, the final water concentration was 0.5%. […] Once added to BVH, the final DMSO concentration was 0.5%. […] The pellet was resuspended with PBS and concentrated by 2.5X fold. For treatment of BVH with compound, 25 ul of enriched BVH was added to 25 ul of Compound and incubated for 1 hour in a thermocycler at 37° C., then 5 ul of 5 mM CFSE was added, and the sample incubated in a thermocycler at 37° C. for 30 minutes. EC50 was estimated by plotting the logarithmic functions of the micromolar concentration of the drug in the x axis against the percent of maximal response in the y axis. The maximal response was taken as the value of the response for the highest drug concentration. The response was calculated by taking the absolute difference between the control and test value for each concentration. The compound colistin sulfate was tested in bovine vitreous humor (BVH) glaucoma model in a microfluidic chip device. A solution of 25% homogenized BVH in PBS buffer was prepared and diluted with an equal amount of a solution of the compound, so that the total BVH concentration was 12.5%. The sample was vortexed and incubated at 37° C. for 1 hour. […] The test compound-BVH solution was introduced into the reservoir of the microfluidic chip device and flow rate and pressure change were recorded. Various concentrations of the compound were tested for effects on the treatment of bovine vitreous humor. 7 ul of each test solution was injected into the microfluidic chip through a sample injector. Recording of the flow rate and pressure change was continued for 50 additional minutes after the sample injection. The relative change in chip pressure for the entire course of the experiment was obtained. […] The EC50 value was taken as the point on the x-axis at which the logarithmic function of the micromolar concentration of the compound produced half-maximal response. The logarithmic function of the micromolar concentration of the drug was plotted on the x axis against the percent of maximal response on the y axis. Maximal response was obtained by taking the value of the response for the highest drug concentration. The response was calculated by taking the absolute difference between the control and test value for each concentration.

[3] = Relative IOP in microfluidic device, human glaucoma model (POAG aqueous humor); conditions: pre-incubated at 37° C. for 24 hours, placebo buffered saline
Method: The agent was tested by controlling flow and measuring relative IOP using in a device of this invention. The agent was compared against placebo (buffered saline) by preparing each in aqueous humor from a patient with primary open angle glaucoma and pre-incubating at 37° C. for 24 hours. The timepoint of injection into the device is denoted by an arrow and the letter “a.” Referring to FIG. 25, the IOP for placebo (dashed line) increased greatly after injection of the placebo sample. The IOP rose to a maximum pressure of about 40 mm Hg. To the contrary, the IOP after injection of the agent colistin sulfate in human aqueous humor (solid line) was markedly lower than for placebo, up to about 40% lower, and the difference was sustained.
Example 1. Isolation of extracellular matrix bodies in a microfluidic device. […] The microfluidic channel flow rate was held constant at […] per minute, and the baseline system pressure was measured using an external pressure sensor. The human aqueous humor sample was injected at timepoint denoted by an arrow and the letter “a.” The pressure steadily rises to a maximum of about 41 mm Hg at 27 minutes. […] The protein content in the aqueous humor was labeled with a fluorescent marker, carboxyfluorescein succinimidyl ester (CFSE, marked with black arrows in FIG. 2). The circles are pillars in the restriction channel.
Example 2. […]

[4] = pre-incubated at 37° C. for 24 hours, placebo buffered saline, concentration not given

EC50 [2]	Compound	IOP after injection of agent, lower than for placebo [1, 4]	further results
213 nM	CC[C@@H](C(N)=O)N1CCCC1=O [levetiracetam]	up to 62%	
	CC(C)N(CCNC(=O)CN1CCCC1=O)C(C)C [pramiracetam, N-[2-[di(propan-2-yl)amino]ethyl]-2-(2-oxopyrrolidin-1-yl)acetamide]	up to 44%	
	COC(=O)N[C@H](C(=O)N1CCC[C@H]1C(=O)Nc1ccc([C@@H]2CC[C@@H](c3ccc(NC(=O)[C@@H]4CCCN4C(=O)[C@@H](NC(=O)OC)C(C)C)cc3)N2c2ccc(C(C)(C)C)cc2)cc1)C(C)C [ombitasvir]		IOP after injection of compound compared with placebo ([1]; 37° C. 24 hours, concentration not given): significantly higher than for placebo
11300 nM	CC(C)(C)NC(=O)N[C@H](C(=O)N1C[C@H]2[C@@H]([C@H]1C(=O)NC(CC1CCC1)C(=O)C(N)=O)C2(C)C)C(C)(C)C (some centres unmarked) [boceprevir]	up to 67%	
	CCCCCCCCCCCCCCCC[n+]1ccccc1 [cetylpyridinium chloride, 1-hexadecylpyridin-1-ium]		IOP after injection of agent, lower than for placebo ([1]; 37° C. 24 hours, cetylpyridinium chloride 43 mg/ml): ≤ 100%
	NC[C@@H]1OC(O[C@H]2[C@@H](O)[C@H](O[C@@H]3[C@@H](O)[C@H](N)C[C@H](N)[C@H]3OC3O[C@H](CN)[C@@H](O)[C@H](O)[C@H]3N)O[C@@H]2CO)[C@H](N)[C@@H](O)[C@@H]1O (some centres unmarked) [neomycin]		IOP after injection of agent, lower than for placebo ([1]; 37° C. 24 hours, neomycin sulfate 35 mg/ml): 72%
	CN(C)CCCN1c2ccccc2Sc2ccc(C(F)(F)F)cc21 [triflupromazine]	up to 40%	
	heparin sodium		IOP after injection of agent, lower than for placebo ([1]; 37° C. 24 hours, heparin sodium 10 mg/ml): 32%
18 nM	H-TPPT-NH2 [rapastinel TFA]	up to 82%	
	CC(C)(C)C(=O)OCOP(=O)(COCCn1cnc2c(N)ncnc21)OCOC(=O)C(C)(C)C [adefovir dipivoxil]	up to 73%	
	CCCCCCCCCCCCOS(=O)(=O)[O-].[Na+] [sodium dodecyl sulfate]		IOP after injection of compound compared with placebo ([1]; 37° C. 24 hours, sodium dodecyl sulfate 24 mg/ml): significantly higher than for placebo
0.36 nM	colistin sulfate	up to 97%	IOP after injection of agent, lower than for placebo [3]: up to 40%
169 nM	Nc1ncnc2c1ncn2CCOCP(=O)(O)O [adefovir, ((2-(6-amino-9H-purin-9-yl)ethoxy)methyl)phosphonic acid]		

Compound	EC50 [2]	IOP after injection of agent, lower than for placebo [1, 4]	further results
CCC(C)CCCCC(=O)NC(CCN)C(=O)NC(C(=O)NC(CCN)C(=O)NC1CCNC(=O)C(C(C)O)NC(=O)C(CCN)NC(=O)C(CCN)NC(=O)C(CC(C)C)NC(=O)C(Cc2ccccc2)NC(=O)C(CCN)NC1=O)C(C)O (centres unmarked) [polymyxin B sulfate] ({Octanoyl(6-Me)}-[Dab]T[Dab][Dab][Dab]FL[Dab][Dab]T; lactam 4-C; configuration not given here)	4.3 nM		IOP after injection of agent, lower than for placebo ([1]; 37° C. 24 hours, Polymyxin B sulfate 10 mg/ml): 78%
